The source of these data is patent publication US20250262201A1, “COMPOUNDS AND METHODS USEFUL FOR STABILIZING PHENYLALANINE HYDROXYLASE MUTATIONS” (Agios Pharmaceuticals, Inc., priority 2022, published 2025).

Where only a bound is given, the exact number is not on record here.

This assay addresses T1, human PAH with the R408W mutation (Homo sapiens, UniProt P00439, R408W).
T1 construct: expressed in transfected cells
T1 sequence (P00439 1-452 R408W): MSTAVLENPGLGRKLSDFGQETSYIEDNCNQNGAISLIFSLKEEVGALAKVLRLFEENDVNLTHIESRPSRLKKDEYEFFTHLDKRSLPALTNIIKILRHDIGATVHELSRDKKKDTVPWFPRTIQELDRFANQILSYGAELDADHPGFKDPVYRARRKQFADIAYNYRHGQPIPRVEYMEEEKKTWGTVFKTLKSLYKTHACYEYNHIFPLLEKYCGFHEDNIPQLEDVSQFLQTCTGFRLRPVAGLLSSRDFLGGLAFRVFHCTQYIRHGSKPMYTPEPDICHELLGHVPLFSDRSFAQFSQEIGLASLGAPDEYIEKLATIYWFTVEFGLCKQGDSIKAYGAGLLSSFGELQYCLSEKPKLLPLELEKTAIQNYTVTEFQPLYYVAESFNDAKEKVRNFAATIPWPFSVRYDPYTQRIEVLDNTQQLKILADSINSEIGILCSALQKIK
Put plainly: Cell Based Phenylalanine Flux Assay. To be noted: A375 R408W cells, 24 hrs with compound, then 20 μM sepiapterin and 800 μM 13C9,15N-Phenylalanine for 4 hours; 13C-Tyrosine by LC-MS; average where tested multiple times; read-out: AC50.
With `O=C(c1nc2ccccc2s1)N1CCc2[nH]cnc2C1c1ccc2ccccc2c1` (centres unmarked), the AC50 (usually the concentration at which the activity in the assay is half-maximal) was greater than 5 µM. For `O=C(c1nnc(CCO)o1)N1CCc2[nH]cnc2C1c1ccc2ccccc2n1` (centres unmarked) the value was greater than 5 µM; for `O=C(CCc1ccc(F)cc1)N1CCc2[nH]cnc2C1c1ccc2ccccc2c1` (centres unmarked), greater than 5 µM; for `O=C(CCc1nccs1)N1CCc2[nH]cnc2C1c1cn2ccccc2n1` (centres unmarked), 1 to 5 µM.

Consider `O=C(Cc1cscn1)N1CCc2[nH]cnc2C1c1cn2ccccc2n1` (centres unmarked), for which the AC50 was 1 to 5 µM. In the case of `O=C(Cc1cnco1)N1CCc2[nH]cnc2C1c1cn2ccccc2n1` (centres unmarked) it was greater than 5 µM; in that of `O=C(Cc1cncs1)N1CCc2[nH]cnc2C1c1cn2ccccc2n1` (centres unmarked), greater than 5 µM; in that of `Cc1nnc(CC(=O)N2CCc3[nH]cnc3C2c2cn3ccccc3n2)s1` (centres unmarked), greater than 5 µM. In the case of `Cc1ncc(CC(=O)N2CCc3[nH]cnc3C2c2cn3ccccc3n2)o1` (centres unmarked) it was greater than 5 µM; in that of `O=C(Cc1nncs1)N1CCc2[nH]cnc2C1c1cn2ccccc2n1` (centres unmarked), greater than 5 µM; in that of `O=C(Cc1cnn2ccccc12)N1CCc2[nH]cnc2C1c1cn2ccccc2n1` (centres unmarked), greater than 5 µM. In the case of `Cc1ncoc1CC(=O)N1CCc2[nH]cnc2C1c1cn2ccccc2n1` (centres unmarked) it was greater than 5 µM. `O=C(Cc1nc(C(F)(F)F)cs1)N1CCc2[nH]cnc2C1c1cn2ccccc2n1` (centres unmarked) [listing 1 of 2 here]: the AC50 lay within 1 to 5 µM. Take `Cc1nc(C2(O)CC2)oc1C(=O)N1CCc2[nH]cnc2C1c1ccc2ccccc2n1` (centres unmarked) [listing 1 of 2 here]: the AC50 lay in the range of 1 to 5 µM. As to `Cn1nc(C(C)(C)O)cc1C(=O)N1CCc2[nH]cnc2C1c1ccc2ccccc2n1` (centres unmarked), the AC50 is greater than 5 µM. For `O=C(Cc1coc(C(F)F)n1)N1CCc2nc[nH]c2C1c1cn2ccccc2n1` (centres unmarked) the value was 1 to 5 µM. In the case of `CC(C)(O)c1cc(C(=O)N2CCc3[nH]cnc3C2c2ccc3ccccc3n2)no1` (centres unmarked) [listing 1 of 2 here] it was 1 to 5 µM.

On to `Cc1nnc(C(=O)N2CCc3[nH]cnc3C2c2cn3ccccc3n2)o1` (centres unmarked), for which the AC50 fell in the range of 1 to 5 µM. In the case of `Cn1ccc(C(=O)N2CCc3[nH]cnc3C2c2ccc3ccccc3n2)n1` (centres unmarked) it was 1 to 5 µM; in that of `Cn1nc(C(F)(F)F)nc1C(=O)N1CCc2[nH]cnc2C1c1ccc2ccccc2n1` (centres unmarked), 1 to 5 µM. For `O=C(c1cn[nH]c1)N1CCc2[nH]cnc2C1c1ccc2ccccc2n1` (centres unmarked) the value was 1 to 5 µM.

Regarding `O=C(c1ccn[nH]1)N1CCc2[nH]cnc2C1c1ccc2ccccc2n1` (centres unmarked) [listing 1 of 2 here], the AC50 fell in the range of 1 to 5 µM. In the case of `Cc1nc(C(C)(C)S(C)(=O)=O)oc1C(=O)N1CCc2[nH]cnc2C1c1ccc2ccccc2n1` (centres unmarked) it was 1 to 5 µM. For `Cc1nc(C2CCN2)oc1C(=O)N1CCc2[nH]cnc2C1c1ccc2ccccc2n1` (centres unmarked) [listing 1 of 2 here] the value was 1 to 5 µM; for `CC(C)(O)c1nc(C(F)(F)F)c(C(=O)N2CCc3[nH]cnc3C2c2cn3ccccc3n2)o1` (centres unmarked), 1 to 5 µM. As to `Cc1nc(C(C)(C)O)oc1C(=O)N1CCc2[nH]cnc2C1c1cn2ccccc2n1` (centres unmarked), the AC50 was 1 to 5 µM. For `CC(C)(O)c1cc(C(=O)N2CCc3[nH]cnc3C2c2ccc3ccccc3n2)on1` (centres unmarked) [listing 1 of 2 here] the value was 1 to 5 µM; for `CC(C)(O)c1cc(C(=O)N2CCc3[nH]cnc3C2c2ccc3ccccc3n2)[nH]n1` (centres unmarked), greater than 5 µM; for `O=C(c1cnn(CC(F)(F)F)c1Cl)N1CCc2[nH]cnc2C1c1ccc2ccccc2n1` (centres unmarked) [listing 1 of 2 here], 1 to 5 µM. For the compound `O=C(c1cnco1)N1CCc2[nH]cnc2C1c1cn2ccccc2n1` (centres unmarked), the AC50 is 1 to 5 µM.

Turning to `O=C(c1cncs1)N1CCc2[nH]cnc2C1c1cn2ccccc2n1` (centres unmarked) [listing 1 of 2 here], the AC50 lay within 1 to 5 µM. For the compound `O=C(C1CC1)N1CCc2nc[nH]c2C1c1cn2ccccc2n1` (centres unmarked), the AC50 fell in the range of 1 to 5 µM.

As to `Cn1cc(-c2ncc(C(=O)N3CCc4[nH]cnc4C3c3ncc4ccccc4n3)o2)cn1` (centres unmarked) [listing 1 of 2 here], the AC50 was greater than 5 µM.

On to `CC(C)(O)c1nnc(C(=O)N2CCc3[nH]cnc3C2c2ncc3ccccc3n2)o1` (centres unmarked) [listing 1 of 2 here], for which the AC50 is greater than 5 µM. In the case of `CN(C)c1nnc(C(=O)N2CCc3[nH]cnc3C2c2ncc3ccccc3n2)o1` (centres unmarked) [listing 1 of 2 here] it was greater than 5 µM.

On to `O=C(c1nnc(-c2ncccn2)o1)N1CCc2[nH]cnc2C1c1ncc2ccccc2n1` (centres unmarked) [listing 1 of 2 here], for which the AC50 is greater than 5 µM. In the case of `Cc1nnc(C(=O)N2CCc3[nH]cnc3C2c2ncc3ccccc3n2)o1` (centres unmarked) [listing 1 of 2 here] it was greater than 5 µM; in that of `CN(C)Cc1ccc2c(C(=O)N3CCc4[nH]cnc4C3c3cn4ccccc4n3)cnn2c1` (centres unmarked), greater than 5 µM. For `O=C(c1cnn2cc(N3CCC(O)CC3)ccc12)N1CCc2[nH]cnc2C1c1ncc2ccccc2n1` (centres unmarked) the value was 1 to 5 µM; for `O=C(CCc1nccs1)N1CCc2[nH]cnc2C1c1cc2ccccc2nn1` (centres unmarked), 1 to 5 µM. For `O=C(Cc1nc(C(F)(F)F)cs1)N1CCc2[nH]cnc2C1c1cn2ccccc2n1` (centres unmarked) [listing 2 of 2 here] the value was greater than 5 µM; for `Cc1nc(C2(O)CC2)oc1C(=O)N1CCc2[nH]cnc2C1c1ccc2ccccc2n1` (centres unmarked) [listing 2 of 2 here], greater than 5 µM. Turning to `CC(C)(O)c1cc(C(=O)N2CCc3[nH]cnc3C2c2ccc3ccccc3n2)no1` (centres unmarked) [listing 2 of 2 here], the AC50 was greater than 5 µM. As for `Cn1nc(COC(F)(F)F)cc1C(=O)N1CCc2[nH]cnc2C1c1ccc2ccccc2n1` (centres unmarked), the AC50 is greater than 5 µM. In the case of `O=C(c1ccn[nH]1)N1CCc2[nH]cnc2C1c1ccc2ccccc2n1` (centres unmarked) [listing 2 of 2 here] it was greater than 5 µM; in that of `Cc1nc(C2CCN2)oc1C(=O)N1CCc2[nH]cnc2C1c1ccc2ccccc2n1` (centres unmarked) [listing 2 of 2 here], greater than 5 µM; in that of `CC(C)(O)c1nnc(C(=O)N2CCc3[nH]cnc3C2c2cc3ccccc3nn2)o1` (centres unmarked), 1 to 5 µM. For `CC(C)(O)c1cc(C(=O)N2CCc3[nH]cnc3C2c2ccc3ccccc3n2)on1` (centres unmarked) [listing 2 of 2 here] the value was greater than 5 µM. For the compound `Cc1nc(-c2cnn(C)c2)oc1C(=O)N1CCc2[nH]cnc2C1c1ncc2ccccc2n1` (centres unmarked), the AC50 was greater than 5 µM. In the case of `Cn1cncc1-c1nnc(C(=O)N2CCc3[nH]cnc3C2c2ncc3ccccc3n2)o1` (centres unmarked) it was 1 to 5 µM; in that of `O=C(c1cnn(CC(F)(F)F)c1Cl)N1CCc2[nH]cnc2C1c1ccc2ccccc2n1` (centres unmarked) [listing 2 of 2 here], greater than 5 µM. `O=C(c1cnco1)N1CCc2[nH]cnc2C1c1cc2ccccc2nn1` (centres unmarked): the concentration at half-maximal activity (AC50) lay in the range of 1 to 5 µM. As to `O=C(c1cnc(-c2ccccn2)o1)N1CCc2[nH]cnc2C1c1cc2ccccc2nn1` (centres unmarked), the AC50 lay within 1 to 5 µM. Take `Cn1nc(C(F)F)nc1C(=O)N1CCc2[nH]cnc2C1c1cc2ccccc2nn1` (centres unmarked): the AC50 lay in the range of 1 to 5 µM. In the case of `O=C(c1ocnc1C(F)F)N1CCc2[nH]cnc2C1c1cc2ccccc2nn1` (centres unmarked) it was 1 to 5 µM; in that of `O=C(c1oc(-c2ccccn2)nc1C(F)F)N1CCc2[nH]cnc2C1c1cc2ccccc2nn1` (centres unmarked), greater than 5 µM.

As for `Cn1ccc(-c2nnc(C(=O)N3CCc4[nH]cnc4C3c3cc4ccccc4nn3)o2)n1` (centres unmarked), the half-maximal activity concentration (AC50) fell in the range of 1 to 5 µM. For `Cn1cc(-c2nnc(C(=O)N3CCc4[nH]cnc4C3c3cc4ccccc4nn3)o2)cn1` (centres unmarked) the value was 1 to 5 µM.

With `O=C(c1nnc(-c2ccccn2)o1)N1CCc2[nH]cnc2C1c1cc2ccccc2nn1` (centres unmarked), the AC50 is 1 to 5 µM. In the case of `O=C(c1nnc(C2CC2)o1)N1CCc2[nH]cnc2C1c1cc2ccccc2nn1` (centres unmarked) it was 1 to 5 µM; in that of `Cc1nnc(C(=O)N2CCc3[nH]cnc3C2c2cc3ccccc3nn2)o1` (centres unmarked), greater than 5 µM; in that of `CC(C)(C)c1nnc(C(=O)N2CCc3[nH]cnc3C2c2cc3ccccc3nn2)o1` (centres unmarked), 1 to 5 µM. In the case of `O=C(c1cncs1)N1CCc2[nH]cnc2C1c1cn2ccccc2n1` (centres unmarked) [listing 2 of 2 here] it was greater than 5 µM; in that of `Cn1cc(-c2ncc(C(=O)N3CCc4[nH]cnc4C3c3ncc4ccccc4n3)o2)cn1` (centres unmarked) [listing 2 of 2 here], 1 to 5 µM. Take `CC(C)(O)c1ncc(C(=O)N2CCc3[nH]cnc3C2c2ncc3ccccc3n2)o1` (centres unmarked): the AC50 was greater than 5 µM. For `Cc1ncoc1C(=O)N1CCc2[nH]cnc2C1c1ncc2ccccc2n1` (centres unmarked) the value was 1 to 5 µM; for `O=C(c1nnc(-c2cn[nH]c2)o1)N1CCc2[nH]cnc2C1c1ncc2ccccc2n1` (centres unmarked), 1 to 5 µM. Turning to `CC(C)(O)c1nnc(C(=O)N2CCc3[nH]cnc3C2c2ncc3ccccc3n2)o1` (centres unmarked) [listing 2 of 2 here], the AC50 lay within 1 to 5 µM.

As for `O=C(c1nnc(N2CC(F)C2)o1)N1CCc2[nH]cnc2C1c1ncc2ccccc2n1` (centres unmarked), the AC50 lay in the range of 1 to 5 µM. As to `CN1CCN(c2nnc(C(=O)N3CCc4[nH]cnc4C3c3ncc4ccccc4n3)o2)CC1` (centres unmarked), the AC50 is 1 to 5 µM. For the compound `CN(C)c1nnc(C(=O)N2CCc3[nH]cnc3C2c2ncc3ccccc3n2)o1` (centres unmarked) [listing 2 of 2 here], the AC50 lay within 1 to 5 µM.

Turning to `O=C(c1nnc(-c2ncccn2)o1)N1CCc2[nH]cnc2C1c1ncc2ccccc2n1` (centres unmarked) [listing 2 of 2 here], the AC50 was in the range of 1 to 5 µM. In the case of `Cc1nnc(C(=O)N2CCc3[nH]cnc3C2c2ncc3ccccc3n2)o1` (centres unmarked) [listing 2 of 2 here], the AC50 fell in the range of 1 to 5 µM. For `O=C(c1nnc(N2CCOCC2)o1)N1CCc2[nH]cnc2C1c1ncc2ccccc2n1` (centres unmarked) the value was 1 to 5 µM. In the case of `CN(C)Cc1ccc2c(C(=O)N3CCc4[nH]cnc4C3c3cc4ccccc4nn3)cnn2c1` (centres unmarked) it was greater than 5 µM; in that of `Cc1ncoc1C(=O)N1CC(C)c2[nH]cnc2C1c1cc2ccccc2cn1` (centres unmarked), greater than 5 µM; in that of `CC1CN(C(=O)c2nnc(-c3cnn(C)c3)o2)C(c2cc3ccccc3cn2)c2nc[nH]c21` (centres unmarked) [listing 1 of 3 here], 1 to 5 µM. On to `COCc1ccc2c(C(=O)N3CC(C)c4[nH]cnc4C3c3cc4ccccc4cn3)cnn2c1` (centres unmarked), for which the AC50 fell in the range of 1 to 5 µM.

As for `CC1CN(C(=O)c2ocnc2C(F)(F)F)C(c2cc3ccccc3cn2)c2nc[nH]c21` (centres unmarked), the AC50 lay within 1 to 5 µM. For the compound `CC1CN(C(=O)c2nnc(-c3cnn(C)c3)o2)C(c2cc3ccccc3cn2)c2nc[nH]c21` (centres unmarked) [listing 2 of 3 here], the AC50 is 1 to 5 µM. Consider `COCCNc1nnc(C(=O)N2CC(C)c3[nH]cnc3C2c2cc3ccccc3cn2)o1` (centres unmarked), for which the AC50 is 1 to 5 µM. In the case of `CC1CN(C(=O)c2nnc(NC3CC3)o2)C(c2cc3ccccc3cn2)c2nc[nH]c21` (centres unmarked) it was 1 to 5 µM. Turning to `CC1CN(C(=O)c2nnc(-c3cnn(C)c3)o2)C(c2cc3ccccc3cn2)c2nc[nH]c21` (centres unmarked) [listing 3 of 3 here], the AC50 is greater than 5 µM.
